Biological target: T1, hGPR40 (Homo sapiens, UniProt O14842)
T1 construct: expressed in transfected cells
Assay: Calcium flux assay to detect GPR40 activation
Assay type: cell-based
Conditions: CHO-K cells stably expressing hGPR40; Fluo-4 NW; read for 4 min at 5 s intervals
Experimental: Biological Activity Calium Flux Assay to Detect GPR40 Activation: CHO-K cells stably expressing hGPR40 were selected in a media containing Neomycin/G418. The cells were plated at a concentration of 20,000 cells per well in black 96-well clear bottom tissue culture treated plates. The cells were cultured for 24 h at 37° C. in a humidified 5% CO2 air environment to allow for protein expression. The next day, after removal of media from wells, Fluo-4 NW (Invitrogen) is added at 100 ul/well and the cells were incubated for 30 min at 37° C. and for a further 30 min at RT. All test compounds were diluted to appropriate concentrations in HEPES buffer. Compounds were added to the cells and the wells were read in the BioTEK synergy reader and readings were taken for 4 min with an interval of 5 s.

T1 sequence (O14842 whole entry): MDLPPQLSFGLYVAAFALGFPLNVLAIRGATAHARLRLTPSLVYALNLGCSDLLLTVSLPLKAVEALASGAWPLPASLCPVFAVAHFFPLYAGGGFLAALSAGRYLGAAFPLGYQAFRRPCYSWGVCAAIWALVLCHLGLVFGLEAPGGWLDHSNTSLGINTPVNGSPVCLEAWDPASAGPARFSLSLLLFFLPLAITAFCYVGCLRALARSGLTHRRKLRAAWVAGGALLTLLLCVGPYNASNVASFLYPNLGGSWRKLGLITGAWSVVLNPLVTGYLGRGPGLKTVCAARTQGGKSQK

Row | SMILES | EC50 [nM]
1 | CN(C)CCO/N=C(/c1ccccc1)c1cccc(COc2ccc(CCC(=O)O)cc2)c1 [Compound 11, 3-[4-({3-[(E,Z)-{[2-(Dimethylamino)ethoxy]imino}(phenyl)methyl]benzyl}oxy)phenyl]propanoic acid] | > 100
2 | CO/N=C(\COc1ccc(COc2ccc(C(C)(C#N)CC(=O)O)cc2)cc1)c1ccccc1 (stereo not drawn) [Compound 59, 3-Cyano-3-{4-[(4-{[(2Z)-2-(methoxyimino)-2-phenylethyl]oxy}benzyl)oxy]phenyl}butanoic acid] | > 100
3 | CON=C(COc1ccc(COc2ccc(C(C#N)CC(=O)O)cc2)cc1)c1ccc(C#N)cc1 (mixture of isomers) [Compound 49, Sodium 3-cyano-3-{4-[(4-{[(2E,2Z)-2-(4-cyanophenyl)-2-(methoxyimino)ethyl]oxy}benzyl)oxy]phenyl}propanoate] | < 10
4 | CON=C(COc1ccc(CNc2ccc([C@@H]3C[C@H]3C(=O)O)cc2)cc1)c1ccccc1 (mixture of isomers) [Compound 14, (1R,2R)-2-{4-[(4-{[(2E,2Z)-2-(Methoxyimino)-2-phenylethyl]oxy}benzyl)amino]phenyl}cyclopropanecarboxylic acid] | 10 to 100
5 | CO/N=C(/COc1ccc(COc2ccc(C(C#N)CC(=O)O)cc2)cc1)c1ccc(OC)cc1 (racemic) [Compound 25, 3-Cyano-3-{4-[(4-{[(2E,2Z)-2-(methoxyimino)-2-(4-methoxyphenyl)ethyl]oxy}benzyl)oxy]phenyl}propanoic acid] | < 10
6 | CO/N=C(\COc1ccc(COc2ccc3c(c2)OCC3CC(=O)O)cc1)c1ccccc1 (stereo not drawn) [Compound 73, {6-[(4-{[(2Z)-2-(Methoxyimino)-2-phenylethyl]oxy}benzyl)oxy]-2,3-dihydro-1-benzofuran-3-yl}acetic acid] | 10 to 100
7 | CO/N=C(\COc1ccc(COc2ccc(C(CC(=O)O)c3c(C)noc3C)cc2)cc1)c1ccccc1 (stereo not drawn) [Compound 67, 3-(3,5-Dimethyl-1,2-oxazol-4-yl)-3-{4-[(4-{[(2E,2Z)-2-(methoxyimino)-2-phenylethyl]oxy}benzyl)oxy]phenyl}propanoic acid] | > 100
8 | CO/N=C(/COc1ccc(COc2ccc(C(C#N)CC(=O)O)cc2)cc1F)c1ccccc1 (racemic) [Compound 21, 3-Cyano-3-{4-[(3-fluoro-4-{[(2E,2Z)-2-(methoxyimino)-2-phenylethyl]oxy}benzyl)oxy]phenyl}propanoic acid] | 10 to 100
9 | CO/N=C(\COc1ccc(COc2ccc(/C(CC(=O)O)=N\OC)cc2)cc1)c1ccccc1 [Compound 68, (3E,3Z)-3-(Methoxyimino)-3-{4-[(4-{[(2Z)-2-(methoxyimino)-2-phenylethyl]oxy}benzyl)oxy]phenyl}propanoic acid] | > 100
10 | CO/N=C(\COc1ccc(COc2ccc(C(C#N)CC(=O)O)cc2)cc1)c1ccccc1 (stereo not drawn) [Compound 16, 3-Cyano-3-{4-[(4-{[(2Z)-2-(methoxyimino)-2-phenylethyl]oxy}benzyl)oxy]phenyl}propanoic acid] | 10 to 100
11 | CO/N=C(/COc1ccc(COc2ccc(C(C#N)CC(=O)O)cc2)cc1)c1cccc(C)c1 (racemic) [Compound 27, 3-Cyano-3-{4-[(4-{[(2E,2Z)-2-(methoxyimino)-2-(3-methylphenyl)ethyl]oxy}benzyl)oxy]phenyl}propanoic acid] | 10 to 100
12 | CO/N=C(\COc1ccc(COc2cc(F)c(CCC(=O)O)cc2F)cc1)c1ccccc1 [Compound 86, 3-{2,5-Difluoro-4-[(4-{[(22)-2-(methoxyimino)-2-phenylethyl]oxy}benzyl)oxy]phenyl}propanoic acid] | > 100
13 | CO/N=C(\COc1ccc(COc2ccc(C(C#N)CC(=O)O)cc2)cc1)c1ccc(F)cc1 (stereo not drawn) [Compound 34, 3-Cyano-3-{4-[(4-{[(2Z)-2-(4-fluorophenyl)-2-(methoxyimino)ethyl]oxy}benzyl)oxy]phenyl}propanoic acid] | < 10
14 | CO/N=C(\COc1ccc(COc2ccc([C@H]3C[C@H]3C(=O)O)cc2)cc1)c1ccc(C#N)cc1 [Compound 63, (1R,2S)-2-{4-[(4-{[(2Z)-2-(4-Cyanophenyl)-2-(methoxyimino)ethyl]oxy}benzyl)oxy]phenyl}cyclopropanecarboxylic acid] | > 100
15 | CO/N=C(/COc1ccc(COc2ccc(-c3c(C(=O)O)noc3C)cc2)cc1)c1ccccc1 [Compound 32, 4-{4-[(4-{[(2E,2Z)-2-(Methoxyimino)-2-phenylethyl]oxy}benzyl)oxy]phenyl}-5-methyl-1,2-oxazole-3-carboxylic acid] | > 100
16 | CO/N=C(\COc1ccc(COc2ccc(CCC(=O)O)c(OC)c2)cc1)c1ccccc1 [Compound 37, 3-{2-Methoxy-4-[(4-{[(2Z)-2-(methoxyimino)-2-phenylethyl]oxy}benzyl)oxy]phenyl}propanoic acid] | > 100
17 | CO/N=C(\COc1ccc(COc2ccc([C@H]3C[C@@H]3C(=O)O)cc2)cc1)c1ccc(C#N)cc1 [Compound 64, (1S,2S)-2-{4-[(4-{[(2E,2Z)-2-(4-Cyanophenyl)-2-(methoxyimino)ethyl]oxy}benzyl)oxy]phenyl}cyclopropanecarboxylic acid] | 10 to 100
18 | CON=C(COc1ccc(CNc2ccc(C3CC3C(=O)O)cc2)cc1)c1ccccc1 (mixture of isomers) [Compound 48, Sodium 2-{4-[(4-{[(2E,2Z)-2-(methoxyimino)-2-phenylethyl]oxy}benzyl)amino]phenyl}cyclopropanecarboxylate] | 10 to 100
19 | CO/N=C(/COc1ccc(COc2ccc(C(CC(=O)O)c3ccon3)cc2)cc1)c1cccc(C)c1 (racemic) [Compound 24, 3-{4-[(4-{[(2E,2Z)-2-(Methoxyimino)-2-(3-methylphenyl)ethyl]oxy}benzyl)oxy]phenyl}-3-(1,2-oxazol-3-yl)propanoic acid] | 10 to 100
20 | CO/N=C(\COc1ccc(COc2ccc(C(C#N)CC(=O)O)cc2)cc1)c1ccccc1 (single isomer, unassigned; (+)) [Compound 74, (+)-3-Cyano-3-{4-[(4-{[(2Z)-2-(methoxyimino)-2-phenylethyl]oxy}benzyl)oxy]phenyl}propanoic acid] | > 100
21 | O=C(O)CCc1ccc(NCc2cccc(/C(=N\OCC(F)(F)F)c3ccccc3)c2)cc1 [Compound 9, 3-{4-[(3-{(E,Z)-Phenyl[(2,2,2-trifluoroethoxy)imino]methyl}benzyl)amino]phenyl}propanoic acid] | > 100
22 | CO/N=C(\COc1cccc(COc2ccc(CC(C#N)C(=O)O)cc2)c1)c1ccccc1 (stereo not drawn) [Compound 8, 2-Cyano-3-{4-[(3-{[(2E,2Z)-2-(methoxyimino)-2-phenylethyl]oxy}benzyl)oxy]phenyl}propanoic acid] | > 100
23 | CO/N=C(\COc1ccc(COc2ccc(CCC(=O)O)cc2)cn1)c1ccccc1 [Compound 20, 3-{4-[(6-{[(2Z)-2-(Methoxyimino)-2-phenylethyl]oxy}pyridin-3-yl)methoxy]phenyl}propanoic acid] | > 100

Now from value to molecule:

Row | EC50 [nM] | SMILES
24 | > 100 | CO/N=C(\COc1ccc(COc2ccc(CCC(=O)O)c(O)c2)cc1)c1ccccc1 [Compound 96, 3-{2-Hydroxy-4-[(4-{[(2Z)-2-(methoxyimino)-2-phenylethyl]oxy}benzyl)oxy]phenyl}propanoic acid]
25 | < 10 | C=CCO/N=C(\COc1ccc(COc2ccc(CCC(=O)O)cc2)cc1)c1ccccc1 [Compound 110, 3-(4-{[4-({(2E,2Z)-2-Phenyl-2-[(prop-2-en-1-yloxy)imino]ethyl}oxy)benzyl]oxy}phenyl)propanoic acid]
26 | > 100 | CO/N=C(\COc1ccc(COc2ccc(C(O)CC(=O)O)cc2)cc1)c1ccccc1 (stereo not drawn) [Compound 118, 3-Hydroxy-3-{4-[(4-{[(2Z)-2-(methoxyimino)-2-phenylethyl]oxy}benzyl)oxy]phenyl}propanoic acid]
27 | > 100 | CON=C(COCC1CCC(COc2ccc(CCC(=O)O)cc2)CC1)c1ccccc1 (stereo not drawn) [Compound 113, 3-(4-{[4-({[(2E,2Z)-2-(Methoxyimino)-2-phenylethyl]oxy}methyl)cyclohexyl]methoxy}phenyl)propanoicacid]
28 | 10 to 100 | CO/N=C(\COc1ccc(COc2ccc(C(C#N)CC(=O)O)cc2)cc1)c1ccc2c(c1)CCO2 (stereo not drawn) [Compound 102, 3-Cyano-3-{4-[(4-{[(2Z)-2-(2,3-dihydro-1-benzofuran-5-yl)-2-(methoxyimino)ethyl]oxy}benzyl)oxy]phenyl}propanoic acid]
29 | 10 to 100 | N#CC(CC(=O)O)c1ccc(OCc2ccc(OC/C(=N\Oc3ccccc3)c3ccccc3)cc2)cc1 (stereo not drawn) [Compound 107, 3-Cyano-3-{4-[(4-{[(2E,2Z)-2-(phenoxyimino)-2-phenylethyl]oxy}benzyl)oxy]phenyl}propanoic acid]
30 | > 100 | N#CC(CC(=O)O)c1ccc(OCc2ccc(OC/C(=N\O)c3ccccc3)cc2)cc1 (stereo not drawn) [Compound 109, 3-Cyano-3-{4-[(4-{[(2Z)-2-(hydroxyimino)-2-phenylethyl]oxy}benzyl)oxy]phenyl}propanoic acid]
31 | > 100 | CO/N=C(\COc1ccc(COc2ccc(/C(CC(=O)O)=N\OCc3ccccc3)cc2)cc1)c1ccccc1 [Compound 122, (3E,3Z)-3-[(Benzyloxy)imino]-3-{4-[(4-{[(2Z)-2-(methoxyimino)-2-phenylethyl]oxy}benzyl)oxy]phenyl}propanoic acid]
32 | > 100 | CO/N=C(\COc1ccc(-c2ccc(CCC(=O)O)cc2)cc1)c1ccccc1 [Compound 115, 3-(4′-{[(2Z)-2-(Methoxyimino)-2-phenylethyl]oxy}biphenyl-4-yl)propanoic acid]
33 | > 100 | CO/N=C(\COc1ccc(COc2ccc(CCC(=O)O)cc2)cc1)c1sc2c(c1C)C(C)(C)CCC2(C)C [Compound 106, 3-{4-[(4-{[(2E)-2-(Methoxyimino)-2-(3,4,4,7,7-pentamethyl-4,5,6,7-tetrahydro-1-benzothiophen-2-yl)ethyl]oxy}benzyl)oxy]phenyl}propanoic acid]
